Experimental data: patent publication US10131652B2, “Pyrimidinyloxy benzene derivatives as herbicides” (E. I. DU PONT DE NEMOURS AND COMPANY, priority 2014, dated 2018)

Legend:
Assay type in all cases: in vivo
[1] = test system: barnyardgrass (Echinochloa crus-galli); assay: Test C flooded paddy test plant response; settings: Flood, 250 g ai/ha; scale of 0 to 100 where 0 is no effect and 100 is complete control; 13 to 15 days
Method in brief: (§1)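 Two-leaf stage → flood to 3 cm → compound into water → hold depth, greenhouse 13–15 d → visual score vs controls (0 none, 100 complete control).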

rice (Oryza sativa) = assay: Test C flooded paddy test plant response; settings: Flood, 250 g ai/ha; scale of 0 to 100 where 0 is no effect and 100 is complete control; 13 to 15 days
Method in brief: as §1

[2] = test system: small-flower umbrella sedge (Cyperus difformis); assay: Test C flooded paddy test plant response; settings: Flood, 250 g ai/ha; scale of 0 to 100 where 0 is no effect and 100 is complete control; 13 to 15 days
Method in brief: as §1

[3] = test system: ducksalad (Heteranthera limosa); assay: Test C flooded paddy test plant response; settings: Flood, 250 g ai/ha; scale of 0 to 100 where 0 is no effect and 100 is complete control; 13 to 15 days
Method in brief: as §1

[4] = test system: barnyardgrass (Echinochloa crus-galli); assay: Test B pre-/postemergence plant response
Method in brief: (§2)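 Ratings reflect visual injury versus untreated controls, from 0 for no effect to 100 for complete control, assessed roughly 10 days after treatment. Formulation: non-phytotoxic solvent mix with surfactant; pre- and postemergence sprays on plants grown in loam soil and sand.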

[5] = test system: pigweed (Amaranthus retroflexus); assay: Test B pre-/postemergence plant response
Method in brief: as §2

[6] = test system: velvetleaf (Abutilon theophrasti); assay: Test B pre-/postemergence plant response
Method in brief: as §2

[7] = test system: wheat (Triticum aestivum); assay: Test B pre-/postemergence plant response
Method in brief: as §2

[8] = test system: giant foxtail (Setaria faberii); assay: Test B pre-/postemergence plant response
Method in brief: as §2

[9] = test system: large (Lg) crabgrass (Digitaria sanguinalis); assay: Test B pre-/postemergence plant response
Method in brief: as §2

[10] = test system: morningglory (Ipomoea spp.); assay: Test B pre-/postemergence plant response
Method in brief: as §2

corn (Zea mays) = assay: Test B pre-/postemergence plant response
Method in brief: as §2

[11] = 125 g ai/ha, postemergence, 0 to 100 scale, 0 no effect, 100 complete control
[12] = Postemergence, 500 g ai/ha, 0 to 100 scale (0 no effect, 100 complete control)
[13] = Postemergence, 1000 g ai/ha, 0 to 100 scale (0 no effect, 100 complete control)
[14] = Preemergence, 125 g ai/ha, 0 to 100 scale where 0 is no effect and 100 is complete control
[15] = Preemergence, 500 g ai/ha, 0 to 100 scale (0 no effect, 100 complete control)
[16] = Preemergence, 1000 g ai/ha, 0 to 100 scale (0 no effect, 100 complete control)

Cn1ccc(-c2ccccc2Oc2ncc(Cl)cn2)n1 [Compound 10]
Barnyardgrass plant response rating [1]: 0 | Rice plant response rating (rice (Oryza sativa)): 0 | Sedge, Umbrella plant response rating [2]: 0 | Ducksalad plant response rating [3]: 0 | Plant response rating, Barnyardgrass [4, 11]: 0 | Plant response rating, Barnyardgrass [4, 12]: 0 | Plant response rating, Barnyardgrass [4, 13]: 10 | Plant response rating, Barnyardgrass [4, 14]: 0 | Plant response rating, Barnyardgrass [4, 15]: 0 | Plant response rating, Barnyardgrass [4, 16]: 0 | Plant response rating, Pigweed [5, 11]: 0 | Plant response rating, Pigweed [5, 12]: 20 | Plant response rating, Pigweed [5, 13]: 50 | Plant response rating, Pigweed [5, 14]: 0 | Plant response rating, Pigweed [5, 15]: 30 | Plant response rating, Pigweed [5, 16]: 10 | Plant response rating, Velvetleaf [6, 11]: 0 | Plant response rating, Velvetleaf [6, 12]: 20 | Plant response rating, Velvetleaf [6, 13]: 20 | Plant response rating, Velvetleaf [6, 14]: 0 | Plant response rating, Velvetleaf [6, 15]: 0 | Plant response rating, Velvetleaf [6, 16]: 0 | Plant response rating, Wheat [7, 11]: 0 | Plant response rating, Wheat [7, 12]: 0 | Plant response rating, Wheat [7, 13]: 0 | Plant response rating, Wheat [7, 14]: 0 | Plant response rating, Wheat [7, 15]: 0 | Plant response rating, Wheat [7, 16]: 0 | Plant response rating, Foxtail, Giant [8, 11]: 0 | Plant response rating, Foxtail, Giant [8, 12]: 0 | Plant response rating, Foxtail, Giant [8, 13]: 10 | Plant response rating, Foxtail, Giant [8, 14]: 0 | Plant response rating, Foxtail, Giant [8, 15]: 0 | Plant response rating, Foxtail, Giant [8, 16]: 0 | Plant response rating, Crabgrass, Large [9, 11]: 0 | Plant response rating, Crabgrass, Large [9, 12]: 0 | Plant response rating, Crabgrass, Large [9, 13]: 10 | Plant response rating, Crabgrass, Large [9, 14]: 0 | Plant response rating, Crabgrass, Large [9, 15]: 0 | Plant response rating, Crabgrass, Large [9, 16]: 10 | Plant response rating, Morningglory [10, 11]: 20 | Plant response rating, Morningglory [10, 12]: 30 | Plant response rating, Morningglory [10, 13]: 10 | Plant response rating, Morningglory [10, 14]: 0 | Plant response rating, Morningglory [10, 15]: 0 | Plant response rating, Morningglory [10, 16]: 0 | Plant response rating, Corn (corn (Zea mays); [11]): 0 | Plant response rating, Corn (corn (Zea mays); [12]): 0 | Plant response rating, Corn (corn (Zea mays); [13]): 0 | Plant response rating, Corn (corn (Zea mays); [14]): 0 | Plant response rating, Corn (corn (Zea mays); [15]): 0 | Plant response rating, Corn (corn (Zea mays); [16]): 0

Cn1cc(-c2ccccc2Oc2ncc(Cl)cn2)cn1 [Compound 11]
Barnyardgrass plant response rating [1]: 0 | Rice plant response rating (rice (Oryza sativa)): 0 | Sedge, Umbrella plant response rating [2]: 0 | Ducksalad plant response rating [3]: 0 | Plant response rating, Barnyardgrass [4, 11]: 0 | Plant response rating, Barnyardgrass [4, 12]: 10 | Plant response rating, Barnyardgrass [4, 14]: 0 | Plant response rating, Barnyardgrass [4, 15]: 0 | Plant response rating, Pigweed [5, 11]: 10 | Plant response rating, Pigweed [5, 12]: 20 | Plant response rating, Pigweed [5, 14]: 0 | Plant response rating, Pigweed [5, 15]: 30 | Plant response rating, Velvetleaf [6, 11]: 10 | Plant response rating, Velvetleaf [6, 12]: 20 | Plant response rating, Velvetleaf [6, 14]: 10 | Plant response rating, Velvetleaf [6, 15]: 10 | Plant response rating, Wheat [7, 11]: 0 | Plant response rating, Wheat [7, 12]: 0 | Plant response rating, Wheat [7, 14]: 0 | Plant response rating, Wheat [7, 15]: 0 | Plant response rating, Foxtail, Giant [8, 11]: 0 | Plant response rating, Foxtail, Giant [8, 12]: 0 | Plant response rating, Foxtail, Giant [8, 14]: 0 | Plant response rating, Foxtail, Giant [8, 15]: 0 | Plant response rating, Crabgrass, Large [9, 11]: 10 | Plant response rating, Crabgrass, Large [9, 12]: 10 | Plant response rating, Crabgrass, Large [9, 14]: 0 | Plant response rating, Crabgrass, Large [9, 15]: 0 | Plant response rating, Morningglory [10, 11]: 10 | Plant response rating, Morningglory [10, 12]: 20 | Plant response rating, Morningglory [10, 14]: 0 | Plant response rating, Corn (corn (Zea mays); [11]): 0 | Plant response rating, Corn (corn (Zea mays); [12]): 0 | Plant response rating, Corn (corn (Zea mays); [14]): 0 | Plant response rating, Corn (corn (Zea mays); [15]): 0
